Experimental findings from patent US20260355165A1, “2,3,4,9-TETRAHYDRO-1H-PYRIDO[3,4-B]INDOLE DERIVATIVES AS ESTROGEN RECEPTOR MODULATORS FOR THE TREATMENT OF CANCER” (Olema Pharmaceuticals, Inc., priority 2022, published 2026) are described below.

The assay addresses T1, estrogen receptor (Homo sapiens, UniProt P03372).
T1 construct: endogenous in cells; host or cells: ECC-1 cells
T1 sequence (P03372 1-595): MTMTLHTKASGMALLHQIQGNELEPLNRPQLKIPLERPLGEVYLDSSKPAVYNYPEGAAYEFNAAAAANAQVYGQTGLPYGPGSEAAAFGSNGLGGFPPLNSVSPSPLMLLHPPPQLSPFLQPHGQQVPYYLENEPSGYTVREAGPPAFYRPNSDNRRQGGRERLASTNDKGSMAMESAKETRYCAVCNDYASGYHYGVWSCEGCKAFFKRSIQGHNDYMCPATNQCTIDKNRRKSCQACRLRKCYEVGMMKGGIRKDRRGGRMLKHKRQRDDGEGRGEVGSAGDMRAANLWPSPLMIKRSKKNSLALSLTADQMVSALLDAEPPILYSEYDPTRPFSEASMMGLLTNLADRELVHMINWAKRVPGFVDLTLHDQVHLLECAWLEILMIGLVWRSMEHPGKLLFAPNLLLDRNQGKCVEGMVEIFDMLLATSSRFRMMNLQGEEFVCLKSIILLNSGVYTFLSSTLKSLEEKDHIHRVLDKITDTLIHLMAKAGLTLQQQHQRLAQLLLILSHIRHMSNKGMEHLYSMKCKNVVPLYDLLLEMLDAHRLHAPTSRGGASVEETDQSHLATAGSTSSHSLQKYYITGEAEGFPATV
The assay can be described thus: AP assay (alkaline phosphatase activity in ECC-1 cells), agonist mode (absence of E2) and antagonist mode (presence of 500 pM E2). It is filed as cell-based. The settings on record: 3 days, AP activity normalized to 500 pM E2 alone, agonist and antagonist mode combined. A digest of the protocol: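 ECC-1 cells in hormone-depleted medium treated with compounds for 3 days, without E2 (agonist mode) or with 500 pM E2 (antagonist mode). AP activity read at 405 nm after p-nitrophenyl phosphate substrate, 40 min at 42 °C. Signal normalized to 500 pM E2 alone.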

Take `CC1CN(Cc2cc3cc([C@@H]4c5[nH]c6ccccc6c5C[C@@H](C)N4CC(C)(C)F)sc3[nH]2)C1` [Compound I-62, 2-[(1S,3R)-2-(2-fluoro-2-methyl-propyl)-3-methyl-1,3,4,9-tetrahydropyrido[3,4-b]indol-1-yl]-5-[(3-methylazetidin-1-yl)methyl]-6H-thieno[2,3-b]pyrrole]: the “Activity (estrogen receptor modulation, e.g., agonism and antagonism)” value (from here on “Activity”) is “++ (estrogen receptor antagonism having (i) between 10% and 80% increase in the E2-normalized signal in the AP assay (agonist mode) and (ii) between 10% and 80% reduction in the E2-normalized signal in the AP assay (antagonist mode))”.
Turning to `C[C@@H]1Cc2c([nH]c3ccccc23)[C@@H](c2cnc3[nH]c(CN4CC(CF)C4)cc3c2)N1CC(C)(C)F` [Compound I-69, (1R,3R)-1-[2-[[3-(fluoromethyl)azetidin-1-yl]methyl]-1H-pyrrolo[2,3-b]pyridin-5-yl]-2-(2-fluoro-2-methyl-propyl)-3-methyl-1,3,4,9-tetrahydropyrido[3,4-b]indole], the “Activity” value is “++ (estrogen receptor antagonism having (i) between 10% and 80% increase in the E2-normalized signal in the AP assay (agonist mode) and (ii) between 10% and 80% reduction in the E2-normalized signal in the AP assay (antagonist mode))”.
With `CC1CN(Cc2cnc3[nH]cc([C@@H]4c5[nH]c6ccccc6c5C[C@@H](C)N4CC(C)(C)F)c3c2)C1` [Compound I-59, (1R,3R)-2-(2-fluoro-2-methyl-propyl)-3-methyl-1-[5-[(3-methylazetidin-1-yl)methyl]-1H-pyrrolo[2,3-b]pyridin-3-yl]-1,3,4,9-tetrahydropyrido[3,4-b]indole] the entry was “+ (estrogen receptor agonism having (i) at least 80% increase in the E2-normalized signal in the AP assay (agonist mode) and (ii) no more than 80% reduction in the E2-normalized signal in the AP assay (antagonist mode))”.
The same measure for `C[C@@H]1Cc2c([nH]c3ccccc23)[C@@H](c2ccc3[nH]c(CN4CC5(C4)CC(O)(C(F)F)C5)cc3c2)N1CC(C)(C)F` [Compound I-49, 6-(difluoromethyl)-2-[[5-[(1R,3R)-2-(2-fluoro-2-methyl-propyl)-3-methyl-1,3,4,9-tetrahydropyrido[3,4-b]indol-1-yl]-1H-indol-2-yl]methyl]-2-azaspiro[3.3]heptan-6-ol]: “+ (estrogen receptor agonism having (i) at least 80% increase in the E2-normalized signal in the AP assay (agonist mode) and (ii) no more than 80% reduction in the E2-normalized signal in the AP assay (antagonist mode))”.
In the case of `C[C@@H]1Cc2c([nH]c3ccccc23)[C@@H](c2c[nH]c3cc(CO)ccc23)N1CC(C)(C)F` [Compound I-1, [3-[(1R,3R)-2-(2-fluoro-2-methyl-propyl)-3-methyl-1,3,4,9-tetrahydropyrido[3,4-b]indol-1-yl]-1H-indol-6-yl]methanol], the “Activity” value is “+ (estrogen receptor agonism having (i) at least 80% increase in the E2-normalized signal in the AP assay (agonist mode) and (ii) no more than 80% reduction in the E2-normalized signal in the AP assay (antagonist mode))”.
The same measure for `C[C@@H]1Cc2c([nH]c3ccccc23)[C@@H](c2c[nH]c3cc(CNCCCF)ccc23)N1CC(C)(C)F` [Compound I-8, 3-fluoro-N-[[3-[(1R,3R)-2-(2-fluoro-2-methyl-propyl)-3-methyl-1,3,4,9-tetrahydropyrido[3,4-b]indol-1-yl]-1H-indol-6-yl]methyl]propan-1-amine]: “+ (estrogen receptor agonism having (i) at least 80% increase in the E2-normalized signal in the AP assay (agonist mode) and (ii) no more than 80% reduction in the E2-normalized signal in the AP assay (antagonist mode))”.
